Values of other authors, collected in patent US20220016054A1, “EPINEPHRINE PARENTERAL FORMULATIONS” (Somerset Therapeutics LLC, priority 2020, published 2022).

Assays:
[1] = tested on: beta-adrenergic receptors
[2] = fraction of that of l-epinephrine

In the case of `CNCC(=O)c1ccc(O)c(O)c1` [adrenalone], the beta-adrenergic activity [1] is listed as “little if any beta-adrenergic activity”.

In the case of `CNC[C@H](O)c1ccc(O)c(O)c1` [d-epinephrine], the “pressor effect relative to l-epinephrine” value [2] is listed as “about one-fifteenth”.
